# Laboratory results as given in PMC12298827, “Subchronic Toxicities of Four Per- and Polyfluoroalkyl Substances (PFASs) by Oral Exposure in Sprague–Dawley Rats” (Toxics, 2025).
# Test system: male and female Sprague–Dawley rats
# Assay: 90-day subchronic oral gavage toxicity study
# Assay type: in vivo, rat
# Design: key to NOEL, absolute liver weight increase / LOEL, absolute liver weight increase / NOEL, relative kidney weight increase / LOEL, relative kidney weight increase / NOEL, absolute kidney weight increase / LOEL, absolute kidney weight increase / NOEL, relative liver weight increase / LOEL, relative liver weight increase: NR: no response, no statistically significant dose-dependent changes
# Description: Subchronic (90-day) studies were performed in accordance with current U.S. EPA’s Toxic Substances Control Act Good Laboratory Practice (GLP) Standards, with the following two general exceptions to the GLP guidelines: Analysis of the dose formulations was conducted according to RTI-approved Standard Operating Procedures, and corn oil (the vehicle) was not characterized (certificate of analysis from the vendor is available in the appendices to the final reports). Male and female Sprague–Dawley rats (five dose levels plus a control, n = 10/sex/dose group, corn oil vehicle dose volume of 3 mL/kg; oral gavage) were used in these studies, and the rats were euthanized on SD 91. The dose levels for PFHI were 0, 12.5, 25, 50, 100, and 200 mg/kg-day. The dose levels for MHFPK were 0, 18.8, 37.5, 75, 150, and 300 mg/kg-day. The dose levels for PFNAC were 0, 0.1, 0.3, 1.0, 3.0, and 10 mg/kg-day for male rats and 0, 0.3, 1.0, 3.0, 10, and 30 mg/kg-day for female rats. For CTFPA, the dose levels were 0, 1.9, 3.8. 7.5, 15, and 30 mg/kg-day for male rats and 0, 6.3, 12.5, 25, 50, and 100 mg/kg-day for female rats. For each PFAS, three batches of dosing solution were prepared. The time between the batch preparation of the dosing solutions ranged between 29 and 39 days. Blood samples were collected from all the rats at termination for serum chemistry, hematology, coagulation, and the analysis of the parent PFAS chemical in the plasma. In vivo data collection and further detail on the endpoints examined postmortem are described below.
# The rats were observed twice daily for morbidity and mortality throughout the study period. At least once prior to randomization to test groups and weekly thereafter, the rats were physically examined, and bodyweights were obtained. Feed consumption was quantified weekly starting on SD 1.
# Neurotoxicity was evaluated using the functional observational battery (FOB) and measuring locomotor activity (LMA) 2–4 h post dosing on SDs 78–80 and 80–84, respectively. For both the 14- and 90-day studies, an ophthalmologic examination was conducted prior to randomization and near the end of the study, using indirect ophthalmoscopy and slit–lamp biomicroscopy (as needed) after the administration of a mydriatic solution.
# Hematology, biochemistry, and coagulation endpoints were measured at the termination of the study. A Siemens Advia 2120i hematology analyzer (Siemens Healthineers, Erlangen, Germany) was used to measure (or calculate) the parameters related to the complete blood count, leukocyte differential count, and reticulocyte count. The hematology parameters are listed and described in Table 2. The prothrombin time […] and activated partial thromboplastin time (APTT) were measured using an Instrumentation Laboratory (Bedford, MA, USA) ACL Elite Pro coagulation analyzer (laser–nephelometric centrifugal method).
# At necropsy, the rats were visually examined for external abnormalities and organ weights (absolute and relative to the BW and brain weight), which were recorded (paired organs weighed together). The tissues were preserved in 10% neutral buffered formalin (NBF), except for the ocular tissues, testes, and epididymides, which were preserved in modified Davidson’s fixative and later transferred to 10% NBF. Bone marrow smears were prepared from the femurs, and the slides were air-dried, fixed in methanol, stained, and stored at room temperature for possible future evaluation. The preserved tissues were embedded in paraffin, sectioned, stained with hematoxylin and eosin, and examined by a board-certified veterinary pathologist.
# Statistical analysis was performed using Provantis™ Version 10 or greater (Instem LSS, Limited; Stone, Staffordshire, UK). Differences among the treatment groups compared to the control were evaluated using one-way analysis of variance (ANOVA) if the underlying assumptions of a normal distribution (Shapiro–Wilk test) and the homogeneity of the variance (Levene’s test) were satisfied. […]
compound,measurement,setting,value
"O=C(O)C(F)(Cl)C(F)(F)F (centres unmarked) [CTFPA, 2-Chloro-2,3,3,3-tetrafluoropropanoic acid]",Liver Weight,"female, 100 mg/kg-day",11.31 g
same,Liver/Body Weight,"female, 100 mg/kg-day",3.57%
same,Liver/Brain Weight,"female, 100 mg/kg-day",575%
same,MPV,"female, 100 mg/kg-day",8.01 ± 0.50 fL
same,PT,"female, 100 mg/kg-day",14.22 s
same,Total BW change,"female, 100 mg/kg-day",107.34 g
same,Total Food Consumed,"female, 100 mg/kg-day",1615 g
same,"BMDL, absolute liver weight increase",male,11.6 mg/kg-day
same,"LOEL, absolute kidney weight increase",male,NR
same,"LOEL, absolute liver weight increase",male,7.5 mg/kg-day
same,"LOEL, relative kidney weight increase",male,NR
same,"LOEL, relative liver weight increase",male,3.8 mg/kg-day
same,"NOEL, absolute kidney weight increase",male,NR
same,"NOEL, absolute liver weight increase",male,3.8 mg/kg-day
same,"NOEL, relative kidney weight increase",male,NR
same,"NOEL, relative liver weight increase",male,1.9 mg/kg-day
same,% BW Gain,"male, 1.9 mg/kg-day",125.06%
same,"% Diff, % BW Gain","male, 1.9 mg/kg-day",-0.26%
same,"% Diff, Total BW change","male, 1.9 mg/kg-day",-0.03%
same,"% Diff, Total Food Consumed","male, 1.9 mg/kg-day",0.81%
same,A/G,"male, 1.9 mg/kg-day",0.95±0.07 ratio
same,ALB,"male, 1.9 mg/kg-day",3.35 ± 0.17 g/dL
same,ALPi,"male, 1.9 mg/kg-day",139.8±40.4 U/L
same,APTT,"male, 1.9 mg/kg-day",18.83 s
same,BUN,"male, 1.9 mg/kg-day",14.8 ± 1.8 mg/dL
same,CHOL,"male, 1.9 mg/kg-day",84.4 ± 9.8 mg/dL
same,GLOB,"male, 1.9 mg/kg-day",3.52 ± 0.20 g/dL
same,GLUC,"male, 1.9 mg/kg-day",170.1 ± 32.6 mg/dL
same,HCT,"male, 1.9 mg/kg-day",50.28±1.93%
same,HGB,"male, 1.9 mg/kg-day",15.58 ± 0.65 g/dL
same,Kidney Weight,"male, 1.9 mg/kg-day",3.12 g
same,Kidney/Body Weight,"male, 1.9 mg/kg-day",0.56%
same,Kidney/Brain Weight,"male, 1.9 mg/kg-day",150%
same,Liver Weight,"male, 1.9 mg/kg-day",14.47 g
same,Liver/Body Weight,"male, 1.9 mg/kg-day",2.58%
same,Liver/Brain Weight,"male, 1.9 mg/kg-day",697%
same,MPV,"male, 1.9 mg/kg-day",7.50 ± 0.37 fL
same,PT,"male, 1.9 mg/kg-day",15.55 s
same,Total BW change,"male, 1.9 mg/kg-day",316.63 g
same,Total Food Consumed,"male, 1.9 mg/kg-day",2084 g
same,% BW Gain,"male, 3.8 mg/kg-day",137.76%
same,"% Diff, % BW Gain","male, 3.8 mg/kg-day",9.87%
same,"% Diff, Total BW change","male, 3.8 mg/kg-day",11.95%
same,"% Diff, Total Food Consumed","male, 3.8 mg/kg-day",9.08%
same,A/G,"male, 3.8 mg/kg-day",0.93±0.20 ratio
same,ALB,"male, 3.8 mg/kg-day",3.29 ± 0.48 g/dL
same,ALPi,"male, 3.8 mg/kg-day",131.8±40.1 U/L
same,APTT,"male, 3.8 mg/kg-day",16.21 s
same,BUN,"male, 3.8 mg/kg-day",15.6 ± 2.5 mg/dL
same,CHOL,"male, 3.8 mg/kg-day",79.3 ± 17.3 mg/dL
same,GLOB,"male, 3.8 mg/kg-day",3.65 ± 0.66 g/dL
same,GLUC,"male, 3.8 mg/kg-day",173.7 ± 32.5 mg/dL
same,HCT,"male, 3.8 mg/kg-day",49.12±2.10%
same,HGB,"male, 3.8 mg/kg-day",15.20 ± 0.71 g/dL
same,Kidney Weight,"male, 3.8 mg/kg-day",3.35 g
same,Kidney/Body Weight,"male, 3.8 mg/kg-day",0.56%
same,Kidney/Brain Weight,"male, 3.8 mg/kg-day",152%
same,Liver Weight,"male, 3.8 mg/kg-day",17.18 g
same,Liver/Body Weight,"male, 3.8 mg/kg-day",2.85%
same,Liver/Brain Weight,"male, 3.8 mg/kg-day",780%
same,MPV,"male, 3.8 mg/kg-day",7.79 ± 0.46 fL
same,PT,"male, 3.8 mg/kg-day",15.25 s
same,Total BW change,"male, 3.8 mg/kg-day",354.57 g
same,Total Food Consumed,"male, 3.8 mg/kg-day",2255 g
same,% BW Gain,"male, 7.5 mg/kg-day",145.16%
same,"% Diff, % BW Gain","male, 7.5 mg/kg-day",15.76%
same,"% Diff, Total BW change","male, 7.5 mg/kg-day",18.72%
same,"% Diff, Total Food Consumed","male, 7.5 mg/kg-day",13.5%
same,A/G,"male, 7.5 mg/kg-day",1.05±0.14 ratio
same,ALB,"male, 7.5 mg/kg-day",3.39 ± 0.32 g/dL
same,ALPi,"male, 7.5 mg/kg-day",159.9±63.1 U/L
same,APTT,"male, 7.5 mg/kg-day",14.52 s
same,BUN,"male, 7.5 mg/kg-day",15.5 ± 2.2 mg/dL
same,CHOL,"male, 7.5 mg/kg-day",74.2 ± 8.5 mg/dL
same,GLOB,"male, 7.5 mg/kg-day",3.24 ± 0.19 g/dL
same,GLUC,"male, 7.5 mg/kg-day",165.6 ± 25.1 mg/dL
same,HCT,"male, 7.5 mg/kg-day",47.49±2.30%
same,HGB,"male, 7.5 mg/kg-day",14.52 ± 0.72 g/dL
same,Kidney Weight,"male, 7.5 mg/kg-day",3.47 g
same,Kidney/Body Weight,"male, 7.5 mg/kg-day",0.56%
same,Kidney/Brain Weight,"male, 7.5 mg/kg-day",159%
same,Liver Weight,"male, 7.5 mg/kg-day",20.01 g
same,Liver/Body Weight,"male, 7.5 mg/kg-day",3.24%
same,Liver/Brain Weight,"male, 7.5 mg/kg-day",912%
same,MPV,"male, 7.5 mg/kg-day",7.61 ± 0.38 fL
same,PT,"male, 7.5 mg/kg-day",15.14 s
same,Total BW change,"male, 7.5 mg/kg-day",376.00 g
same,Total Food Consumed,"male, 7.5 mg/kg-day",2345 g
same,% BW Gain,"male, 15 mg/kg-day",135.14%
same,"% Diff, % BW Gain","male, 15 mg/kg-day",7.78%
same,"% Diff, Total BW change","male, 15 mg/kg-day",8.09%
same,"% Diff, Total Food Consumed","male, 15 mg/kg-day",14.6%
same,A/G,"male, 15 mg/kg-day",1.16±0.11 ratio
same,ALB,"male, 15 mg/kg-day",3.56 ± 0.21 g/dL
same,ALPi,"male, 15 mg/kg-day",237.6±66.2 U/L
same,APTT,"male, 15 mg/kg-day",12.89 s
same,BUN,"male, 15 mg/kg-day",15.8 ± 2.4 mg/dL
same,CHOL,"male, 15 mg/kg-day",63.6 ± 10.8 mg/dL
same,GLOB,"male, 15 mg/kg-day",3.07 ± 0.19 g/dL
same,GLUC,"male, 15 mg/kg-day",175.2 ± 15.8 mg/dL
same,HCT,"male, 15 mg/kg-day",47.72±2.58%
same,HGB,"male, 15 mg/kg-day",14.62 ± 0.84 g/dL
same,Kidney Weight,"male, 15 mg/kg-day",3.40 g
same,Kidney/Body Weight,"male, 15 mg/kg-day",0.58%
same,Kidney/Brain Weight,"male, 15 mg/kg-day",147%
same,Liver Weight,"male, 15 mg/kg-day",20.28 g
same,Liver/Body Weight,"male, 15 mg/kg-day",3.47%
same,Liver/Brain Weight,"male, 15 mg/kg-day",873%
same,MPV,"male, 15 mg/kg-day",7.56 ± 0.43 fL
same,PT,"male, 15 mg/kg-day",15.24 s
same,Total BW change,"male, 15 mg/kg-day",342.33 g
same,Total Food Consumed,"male, 15 mg/kg-day",2368 g
same,% BW Gain,"male, 30 mg/kg-day",121.40%
same,"% Diff, % BW Gain","male, 30 mg/kg-day",-3.18%
same,"% Diff, Total BW change","male, 30 mg/kg-day",-0.72%
same,"% Diff, Total Food Consumed","male, 30 mg/kg-day",10.33%
same,A/G,"male, 30 mg/kg-day",1.19±0.12 ratio
same,ALB,"male, 30 mg/kg-day",3.72 ± 0.22 g/dL
same,ALPi,"male, 30 mg/kg-day",282.9±80.3 U/L
same,APTT,"male, 30 mg/kg-day",12.13 s
same,Absolute and relative thymus weights,"male, 30 mg/kg-day",significantly increased
same,BUN,"male, 30 mg/kg-day",18.7 ± 2.7 mg/dL
same,CHOL,"male, 30 mg/kg-day",68.5 ± 10.0 mg/dL
same,GLOB,"male, 30 mg/kg-day",3.14 ± 0.22 g/dL
same,GLUC,"male, 30 mg/kg-day",175.3 ± 23.2 mg/dL
same,HCT,"male, 30 mg/kg-day",47.32±2.15%
same,HGB,"male, 30 mg/kg-day",14.44 ± 0.69 g/dL
same,Kidney Weight,"male, 30 mg/kg-day",3.35 g
same,Kidney/Body Weight,"male, 30 mg/kg-day",0.60%
same,Kidney/Brain Weight,"male, 30 mg/kg-day",148%
same,Liver Weight,"male, 30 mg/kg-day",21.52 g
same,Liver/Body Weight,"male, 30 mg/kg-day",3.82%
same,Liver/Brain Weight,"male, 30 mg/kg-day",954%
same,MPV,"male, 30 mg/kg-day",7.54 ± 0.47 fL
same,PT,"male, 30 mg/kg-day",15.74 s
same,Total BW change,"male, 30 mg/kg-day",314.42 g
same,Total Food Consumed,"male, 30 mg/kg-day",2281 g
